US6355799B1, “Substituted benzene compounds, process for their preparation, and herbicidal and defoliant compositions containing them” (ISK Americas Incorporated, priority 1997, dated 2002)

Experiments:
Format in all cases: in vivo
[1] = test system: field corn (Zea mays L., var. Dekalb 535, CORN); experiment: Pre-emerge test, crop safety; details: crop damage rating 0-100, 14 days after application
Method in brief: (§1)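 Applied at 15–1000 g ai/ha from acetone in 187 l/ha spray volume. Post-emergence applications included 0.25% v/v non-ionic surfactant and reached plants sown 8–21 days before. Pre-emergence applications were incorporated by surface watering. Efficacy or crop damage was rated on a 0–100 scale after 14 days.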

[2] = test system: upland rice (Oryza sp., var. Tebonnet, RICE); experiment: Pre-emerge test, crop safety; details: crop damage rating 0-100, 14 days after application
Method in brief: as §1

[3] = test system: johnsongrass (Sorghum halepense, SORHA); experiment: Pre-emerge test, greenhouse herbicide activity screening; details: phytotoxicity rating 0-100, 14 days after application
Method in brief: (§2)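 Sandy loam pots; pre-emerge: sown 1 d pre-spray, surface-watered after, then bottom-watered. Post-emerge: sown 8–21 d before, 2–3 leaf stage, + 0.25% v/v NIS, bottom-watered. Acetone, 187 l/ha track spray, 15–1000 g ai/ha. 0–100 injury score, day 14.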

[4] = test system: common ragweed (Ambrosia artemisizfolia L., AMBEL); experiment: as above; details: phytotoxicity rating 0-100, 14 days after application
Method in brief: as §2

[5] = test system: ivyleaf morningglory (Ipomoea hederacea, IPOHE); experiment: as above; details: phytotoxicity rating 0-100, 14 days after application
Method in brief: as §2

[6] = test system: sicklepod (Cassia obtusifolia, CASOB); experiment: as above; details: phytotoxicity rating 0-100, 14 days after application
Method in brief: as §2

[7] = test system: green foxtail (Setaria viridis, SETVI); experiment: as above; details: phytotoxicity rating 0-100, 14 days after application
Method in brief: as §2

[8] = test system: velvetleaf (Abutilon theophrasti, ABUTH); experiment: as above; details: phytotoxicity rating 0-100, 14 days after application
Method in brief: as §2

[9] = test system: barnyardgrass (Echinochloa crus-galli, ECHCG); experiment: as above; details: phytotoxicity rating 0-100, 14 days after application
Method in brief: as §2

[10] = test system: lambsquarters (Chenopodium album, CHEAL); experiment: as above; details: phytotoxicity rating 0-100, 14 days after application
Method in brief: as §2

[11] = test system: large crabgrass (Digitaria sanguinalis, DIGSA); experiment: as above; details: phytotoxicity rating 0-100, 14 days after application
Method in brief: as §2

[12] = test system: redroot pigweed (Amaranthus retroflexus, AMARE); experiment: as above; details: phytotoxicity rating 0-100, 14 days after application
Method in brief: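 Visual ratings on a 0-100 scale (0 no damage, 100 all plants dead) were taken at 14 days after treatment. Rates of 15-1000 g ai/ha in acetone, 187 l/ha, were sprayed onto soil one day after planting (pre-emerge) or onto 2-3 leaf plants with 0.25% v/v surfactant (post-emerge).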

[13] = test system: johnsongrass (Sorghum halepense, SORHA); experiment: Post-emerge test, greenhouse herbicide activity screening; details: post-emerge, 14 days after application, rating scale 0-100
Method in brief: (§3)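 Compounds in acetone were track-sprayed at 15–1000 g ai/ha: pre-emergence onto soil sown the previous day, then top-watered to incorporate and later bottom-watered; post-emergence onto 2–3 leaf plants with 0.25% v/v surfactant, bottom-watered only. Ratings on a 0–100 phytotoxicity scale were taken at day 14.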

[14] = test system: ivyleaf morningglory (Ipomoea hederacea, IPOHE); experiment: as above; details: post-emerge, 14 days after application, rating scale 0-100
Method in brief: as §3

[15] = test system: sicklepod (Cassia obtusifolia, CASOB); experiment: as above; details: post-emerge, 14 days after application, rating scale 0-100
Method in brief: as §3

[16] = test system: green foxtail (Setaria viridis, SETVI); experiment: as above; details: post-emerge, 14 days after application, rating scale 0-100
Method in brief: as §3

[17] = test system: velvetleaf (Abutilon theophrasti, ABUTH); experiment: as above; details: post-emerge, 14 days after application, rating scale 0-100
Method in brief: as §3

[18] = test system: barnyardgrass (Echinochloa crus-galli, ECHCG); experiment: as above; details: post-emerge, 14 days after application, rating scale 0-100
Method in brief: as §3

[19] = test system: lambsquarters (Chenopodium album, CHEAL); experiment: as above; details: post-emerge, 14 days after application, rating scale 0-100
Method in brief: as §3

[20] = test system: large crabgrass (Digitaria sanguinalis, DIGSA); experiment: as above; details: post-emerge, 14 days after application, rating scale 0-100
Method in brief: as §3

[21] = test system: redroot pigweed (Amaranthus retroflexus, AMARE); experiment: as above; details: post-emerge, 14 days after application
Method in brief: as §3

[22] = test system: field corn (Zea mays L., var. Dekalb 535, CORN); experiment: Post-emerge test, crop safety; details: post-emerge, 14 days after application, rating scale 0-100
Method in brief: as §2

[23] = test system: upland rice (Oryza sp., var. Tebonnet, RICE); experiment: Post-emerge test, crop safety; details: post-emerge, 14 days after application, rating scale 0-100
Method in brief: as §2

## CCCCCC(=O)Nc1c(OC)c(Cl)cc(F)c1-n1c(=O)cc(C(F)(F)F)n(C)c1=O [2-198]
[1]; 63 g ai/ha
  Pre-emerge Herbicidal Activity CORN: 50
[1]; 250 g ai/ha
  Pre-emerge Herbicidal Activity CORN: 90
[2]; 63 g ai/ha
  Pre-emerge Herbicidal Activity RICE: 30
[2]; 250 g ai/ha
  Pre-emerge Herbicidal Activity RICE: 80
[3]; 63 g ai/ha
  Pre-emerge Herbicidal Activity SORHA: 50
[3]; 250 g ai/ha
  Pre-emerge Herbicidal Activity SORHA: 99
[4]; 63 g ai/ha
  Pre-emerge Herbicidal Activity AMBEL: 100
[4]; 250 g ai/ha
  Pre-emerge Herbicidal Activity AMBEL: 100
[5]; 63 g ai/ha
  Pre-emerge Herbicidal Activity IPOHE: 100
[5]; 250 g ai/ha
  Pre-emerge Herbicidal Activity IPOHE: 100
[6]; 63 g ai/ha
  Pre-emerge Herbicidal Activity CASOB: 50
[6]; 250 g ai/ha
  Pre-emerge Herbicidal Activity CASOB: 100
[7]; 63 g ai/ha
  Pre-emerge Herbicidal Activity SETVI: 90
[7]; 250 g ai/ha
  Pre-emerge Herbicidal Activity SETVI: 100
[8]; 63 g ai/ha
  Pre-emerge Herbicidal Activity ABUTH: 100
[8]; 250 g ai/ha
  Pre-emerge Herbicidal Activity ABUTH: 100
[9]; 63 g ai/ha
  Pre-emerge Herbicidal Activity ECHCG: 50
[9]; 250 g ai/ha
  Pre-emerge Herbicidal Activity ECHCG: 100
[10]; 63 g ai/ha
  Pre-emerge Herbicidal Activity CHEAL: 100
[10]; 250 g ai/ha
  Pre-emerge Herbicidal Activity CHEAL: 100
[11]; 63 g ai/ha
  Pre-emerge Herbicidal Activity DIGSA: 100
[11]; 250 g ai/ha
  Pre-emerge Herbicidal Activity DIGSA: 100
[12]; 63 g ai/ha
  Pre-emerge Herbicidal Activity AMARE: 100
[12]; 250 g ai/ha
  Pre-emerge Herbicidal Activity AMARE: 100
[13]; 63 g ai/ha
  phytotoxicity rating SORHA: 0
[13]; 250 g ai/ha
  phytotoxicity rating SORHA: 50
[14]; 63 g ai/ha
  phytotoxicity rating IPOHE: 80
[14]; 250 g ai/ha
  phytotoxicity rating IPOHE: 100
[15]; 63 g ai/ha
  phytotoxicity rating CASOB: 50
[15]; 250 g ai/ha
  phytotoxicity rating CASOB: 30
[16]; 63 g ai/ha
  phytotoxicity rating SETVI: 10
[16]; 250 g ai/ha
  phytotoxicity rating SETVI: 10
[17]; 63 g ai/ha
  phytotoxicity rating ABUTH: 80
[17]; 250 g ai/ha
  phytotoxicity rating ABUTH: 100
[18]; 63 g ai/ha
  phytotoxicity rating ECHCG: 5
[18]; 250 g ai/ha
  phytotoxicity rating ECHCG: 5
[19]; 63 g ai/ha
  phytotoxicity rating CHEAL: 80
[19]; 250 g ai/ha
  phytotoxicity rating CHEAL: 90
[20]; 63 g ai/ha
  phytotoxicity rating DIGSA: 10
[20]; 250 g ai/ha
  phytotoxicity rating DIGSA: 10
[21]; 63 g ai/ha, rating scale 0-100 (0 no damage, 100 complete death)
  phytotoxicity rating AMARE: 80
[21]; 250 g ai/ha, rating scale 0-100
  phytotoxicity rating AMARE: 95
[22]; 63 g ai/ha
  phytotoxicity rating CORN (crop damage): 10
[22]; 250 g ai/ha
  phytotoxicity rating CORN (crop damage): 40
[23]; 63 g ai/ha
  phytotoxicity rating RICE (crop damage): 10
[23]; 250 g ai/ha
  phytotoxicity rating RICE (crop damage): 30
